Assay results from patent US20250163016A1, “PYRIDINE DERIVATIVE, PREPARATION METHOD THEREFOR AND USE THEREOF” (CHENGDU EASTON BIOPHARMACEUTICALS CO., LTD., priority 2022, published 2025).

System: not listed separately
Test: Pharmacokinetics of oral administration of rats
Format: in vivo
Settings: male, rat, SD rats, p.o. 5.0 mg/kg, plasma
Procedure: With SD rats as tested animals, blood drug concentrations in plasma at different moments after oral administration of the compounds of the present application by the rats in a clarification kit mode were determined using an LC-MS/MS method. Pharmacokinetic parameters of the compounds of the present application in the rats were obtained, and pharmacokinetic characteristics of the compounds were studied.
• SD rats, male, weight 180-220 g, 3 rats per group. The animals were fed in an animal house after being purchased, an adaptation period was at least 3 days, and they were used for tests after passing quarantine.
According to Table 4, each group of rats was given the corresponding tested drugs or positive drugs by gavage, before administration, and 15 min, 30 min, 1 h, 2 h, 4 h, 6 h, 8 h, and 24 h after administration, a fixed volume of blood was collected through eye sockets and placed in an EDTA-K2 anticoagulant tube, centrifuging was carried out at 8000 rpm for 1 min to separate plasma into a centrifuge tube, and the plasma was frozen in a −20° C. refrigerator.
The plasma at each time point stored at −20° C. was taken out, then acetonitrile was added, after whirling at 1500 revolutions for 2 min, centrifuging was carried out for 15 min (3500 r/min), and a fixed volume of solution supernatant was taken for LC-MS/MS analysis.
Non-compartment model fitting was carried out on pharmacokinetic behaviors of the tested compounds, and DAS3.31 software was adopted to calculate main pharmacokinetic parameters (T1/2, Tmax, Cmax, AUClast, etc.).

| Structure (SMILES) | AUC(0-t) | Cmax | Tmax | half-life |
| --- | --- | --- | --- | --- |
| COc1ccc(-c2c(C#N)cc(C3CCC(N)CC3)nc2-c2ccc(C#N)c(F)c2)cc1F (stereo not shown) [Compound 14, 6-(4-aminocyclohexyl)-2-(4-cyano-3-fluorophenyl)-3-(3-fluoro-4-methoxyphenyl)isonicotinonitrile] | 1470 ± 44.6 ng·h/mL | 130 ± 7.9 ng/mL | 4.67 ± 2.31 h | 5.97 ± 0.29 h |
| Cn1ncc2cc(-c3c(C#N)cc(N4CCCNCC4)nc3-c3ccc(C#N)c(F)c3)ccc21 [Compound 20, 2-(4-cyano-3-fluorophenyl)-6-(1,4-diazaniline-1-yl)-3-(1-methyl-1H-indazol-5-yl)isonicotinonitrile] | 1410 ± 293 ng·h/mL | 126 ± 23.9 ng/mL | 4.67 ± 1.15 h | 4.66 ± 0.73 h |
| COc1ccc(-c2c(C#N)cc(N3CCC(N)CC3)nc2-c2ccc(C#N)c(F)c2)cc1F [Compound 1, 6-(4-aminopiperid-1-yl)-2-(4-cyano-3-fluorophenyl)-3-(3-fluoro-4-methoxyphenyl)isonicotinonitrile] | 1300 ± 411 ng·h/mL | 93.9 ± 19.1 ng/mL | 6 h | 7.64 ± 2.46 h |
| COc1ccc(-c2c(C#N)cc(N3CCCNCC3)nc2-c2ccc(C#N)c(F)c2)cc1F [Compound 15, 2-(4-cyano-3-fluorophenyl)-6-(1,4-diazacyclohepta-1-yl)-3-(3-fluoro-4-methoxyphenyl)isonicotinonitrile] | 1550 ± 252 ng·h/mL | 125 ± 25.8 ng/mL | 6 h | 5.73 ± 0.8 h |

Molecular target: T1, LSD1 (Homo sapiens, UniProt O60341)
T1 construct: purchased Active Motif 31432
Test: LSD1 activity test (HTRF)
Format: biochemical
Settings: H3(1-21)K4 me1-biotin substrate, read-out: IC50, inhibitory activity on LSD1
Procedure: In this test, a homogeneous time resolved fluorescence (HTRF) technology was utilized, and the inhibitory activity of compounds on LSD1 was detected by adopting a two-step method. The first step was to incubate LSD1, compounds of different concentrations, and a biotin-labeled methylated polypeptide substrate (H3(1-21)K4 me1-biotin) at the room temperature for fixed time.
A corresponding solution with a 1000-fold final concentration was formed by dilution in a 384-well Source plate, and then Echo550 was used for transferring 10 nL to a 384-well reaction plate for being tested.
An inhibition percentage was calculated using a maximum value, a minimum value, and a signal value (maximum value: fluorescence intensity of 5 μL of 2× enzyme solution+5 μL of 2× substrate mixed solution+10 nL of 100% DMSO+10 μL of detection solution; minimum value: fluorescence intensity of 5 μL of 1× reaction solution+5 μL of 2× substrate mixed solution+10 nL of 100% DMSO+10 μL of detection solution; and signal value: fluorescence intensity of 5 μL of 2× enzyme solution+5 μL of 2× substrate mixed solution+10 nL of diluted compound to be tested+10 μL of detection solution), and a calculation formula was as follows: […]
Using a logarithm of the concentration as an X axis and the percentage inhibition rate as a Y axis, a dose-response curve was fitted using a formula log(inhibitor) vs. response-Variable slope (Four parameters) of analysis software Graphpad Prism 5 to obtain the IC50 value of each compound on the enzyme activity.

| Structure (SMILES) | IC50 |
| --- | --- |
| COc1ccc(-c2c(C#N)cc(C3CCC(N)CC3)nc2-c2ccc(C#N)c(F)c2)cc1F (stereo not shown) [Compound 14, 6-(4-aminocyclohexyl)-2-(4-cyano-3-fluorophenyl)-3-(3-fluoro-4-methoxyphenyl)isonicotinonitrile] | 8.9 nM |
| CC(C)(O)Cc1ccc(-c2c(C#N)cc(N3CCC(N)CC3)nc2-c2ccc(C#N)c(F)c2)c(F)c1 [Compound 19, 6-(4-aminopiperid-1-yl)-2-(4-cyano-3-fluorophenyl)-3-(2-fluoro-4-(2-hydroxyl-2-methylpropyl)phenyl)isonicotinonitrile] | 3.1 nM |
| COc1ccc(-c2c(C#N)cc(N3CCC4(CCNC4)CC3)nc2-c2ccc(C#N)c(F)c2)cc1F [Compound 29, 2-(4-cyano-3-fluorophenyl)-3-(3-fluoro-4-methoxyphenyl)-6-(2,8-diazaspiro[4.5]dec-8-yl)isonicotinonitrile] | 3.4 nM |
| CN(C)C(=O)c1cc(-c2ccc3c(cnn3C)c2)c(-c2ccc(C#N)c(F)c2)nc1N1CCCNCC1 [Compound 27, 6-(4-cyano-3-fluorophenyl)-2-(1,4-diazaniline-1-yl)-N,N-dimethyl-5-(1-methyl-1H-indazol-5-yl)nicotinamide] | 3.3 nM |
| Cn1ncc2cc(-c3c(-c4ccc(C#N)c(F)c4)nc(N4CCC(N)CC4)c4c3CNC4=O)ccc21 [Compound 8, 4-(4-(4-aminopiperid-1-yl)-7-(1-methyl-1H-indazol-5-yl)-3-oxo-2,3-dihydro-1H-pyrrole[3,4-c]pyrid-6-yl)-2-fluorobenzonitrile] | 6.5 nM |
| CC(C)(O)C(F)(F)c1ccc(-c2c(C#N)cc(N3CCC(N)CC3)nc2-c2ccc(C#N)c(F)c2)c(F)c1 [Compound 35, 6-(4-aminopiperid-1-yl)-2-(4-cyano-3-fluorophenyl)-3-(4-(1,1-difluoro-2-hydroxyl-2-methylpropyl)-2-fluorophenyl)isonicotinonitrile] | 2.2 nM |
| Cn1ncc2cc(-c3cc(C(N)=O)c(N4CCCNCC4)nc3-c3ccc(C#N)c(F)c3)ccc21 [Compound 26, 6-(4-cyano-3-fluorophenyl)-2-(1,4-diaza-1-yl)-5-(1-methyl-1H-indazol-5-yl)nicotinamide] | 2.9 nM |
| COc1ccc(-c2c(C#N)cc(N3CCC4(CC3)CNC4)nc2-c2ccc(C#N)c(F)c2)cc1F [Compound 22, 2-(4-cyano-3-fluorophenyl)-3-(3-fluoro-4-methoxyphenyl)-6-(2,7-diazaspiro[3.5]non-7-yl)isonicotinonitrile] | 6.2 nM |
| Cn1ncc2cc(-c3cc(C#N)c(N4CCC(N)CC4)nc3-c3ccc(C#N)c(F)c3)ccc21 [Compound 12, 2-(4-aminopiperid-1-yl)-6-(4-cyano-3-fluorophenyl)-5-(1-methyl-1H-indazol-5-yl)nicotinonitrile] | 4.4 nM |
| COc1ccc(-c2c(-c3ccc(C#N)c(F)c3)nc(N3CCC(N)CC3)c3c2CNC3=O)cc1F [Compound 3, 4-(4-(4-aminopiperid-1-yl)-7-(3-fluoro-4-methoxyphenyl)-3-oxo-2,3-dihydro-1H-pyrrole[3,4-c]pyrid-6-yl)-2-fluorobenzonitrile] | 5.8 nM |
| Cn1ncc2cc(-c3cc(C(=O)NC4CC4)c(N4CCCNCC4)nc3-c3ccc(C#N)c(F)c3)ccc21 [Compound 28] | 2.3 nM |
| COc1ccc(-c2c(C(N)=O)cc(N3CCC(N)CC3)nc2-c2ccc(C#N)c(F)c2)cc1F [Compound 2, 6-(4-aminopiperid-1-yl)-2-(4-cyano-3-fluorophenyl)-3-(3-fluoro-4-methoxyphenyl)isonicotinamide] | 4.8 nM |

These reach a lower IC50. Values come first.

| IC50 | Structure (SMILES) |
| --- | --- |
| 2.1 nM | COc1ccc(-c2c(C#N)cc(N3CCC(N)CC3)nc2-c2ccc(C#N)c(F)c2)cc1F [Compound 1, 6-(4-aminopiperid-1-yl)-2-(4-cyano-3-fluorophenyl)-3-(3-fluoro-4-methoxyphenyl)isonicotinonitrile] |
| 2 nM | COc1ccc(-c2c(C#N)cc(N3CCCNCC3)nc2-c2ccc(C#N)c(F)c2)cc1F [Compound 15, 2-(4-cyano-3-fluorophenyl)-6-(1,4-diazacyclohepta-1-yl)-3-(3-fluoro-4-methoxyphenyl)isonicotinonitrile] |
| 1.5 nM | CN1C(=O)C(F)(F)c2cc(-c3c(C#N)cc(N4CCC(N)CC4)nc3-c3ccc(C#N)c(F)c3)ccc21 [Compound 34, 6-(4-aminopiperid-1-yl)-2-(4-cyano-3-fluorophenyl)-3-(3,3-difluoro-1-methyl-2-oxoindol-5-yl)isonicotinonitrile] |
| 1.5 nM | Cn1ncc2cc(-c3cc(C(N)=O)c(N4CCC(N)CC4)nc3-c3ccc(C#N)c(F)c3)ccc21 [Compound 11, 2-(4-aminopiperid-1-yl)-6-(4-cyano-3-fluorophenyl)-5-(1-methyl-1H-indazol-5-yl)nicotinamide] |
| 1.4 nM | Cn1ncc2cc(-c3c(C#N)cc(N4CCCNCC4)nc3-c3ccc(C#N)c(F)c3)ccc21 [Compound 20, 2-(4-cyano-3-fluorophenyl)-6-(1,4-diazaniline-1-yl)-3-(1-methyl-1H-indazol-5-yl)isonicotinonitrile] |
| 1.2 nM | CC(C)(O)Cn1ncc2cc(-c3c(C(N)=O)cc(N4CCC(N)CC4)nc3-c3ccc(C#N)c(F)c3)c(F)cc21 [Compound 17, 6-(4-aminopiperid-1-yl)-2-(4-cyano-3-fluorophenyl)-3-(6-fluoro-1-(2-hydroxyl-2-methylpropyl)-1H-indazol-5-yl)isonicotinamide] |
| 0.81 nM | Cn1ncc2cc(-c3c(C(N)=O)cc(N4CCC(N)CC4)nc3-c3ccc(C#N)c(F)c3)ccc21 [Compound 10, 6-(4-aminopiperid-1-yl)-2-(4-cyano-3-fluorophenyl)-3-(1-methyl-1H-indazol-5-yl)isonicotinamide] |
| 0.72 nM | CC(C)(O)Cn1ncc2cc(-c3c(-c4ccc(C#N)c(F)c4)nc(N4CCC(N)CC4)c4c3CNC4=O)c(F)cc21 [Compound 9, 4-(4-(4-aminopiperid-1-yl)-7-(6-fluoro-1-(2-hydroxyl-2-methylpropyl)-1H-indazol-5-yl)-3-oxo-2,3-dihydro-1H-pyrrole[3,4-c]pyrid-6-yl)-2-fluorobenzonitrile] |
| 0.34 nM | Cc1noc2cc(-c3c(C#N)cc(N4CCC(N)CC4)nc3-c3ccc(C#N)c(F)c3)c(F)cc12 [Compound 33, 6-(4-aminopiperid-1-yl)-2-(4-cyano-3-fluorophenyl)-3-(5-fluoro-3-tolueno[d]isoxazol-6-yl)isonicotinonitrile] |
